For 40 compounds, residual activity results are on record in ChEMBL document CHEMBL3039007, “Structure-based identification of OATP1B1/3 inhibitors” (Mol Pharmacol, 2013).

Data set [1] deals with T1, Solute carrier organic anion transporter family member 1B3 (Homo sapiens, UniProt Q9NPD5).
T1 sequence (Q9NPD5 whole entry): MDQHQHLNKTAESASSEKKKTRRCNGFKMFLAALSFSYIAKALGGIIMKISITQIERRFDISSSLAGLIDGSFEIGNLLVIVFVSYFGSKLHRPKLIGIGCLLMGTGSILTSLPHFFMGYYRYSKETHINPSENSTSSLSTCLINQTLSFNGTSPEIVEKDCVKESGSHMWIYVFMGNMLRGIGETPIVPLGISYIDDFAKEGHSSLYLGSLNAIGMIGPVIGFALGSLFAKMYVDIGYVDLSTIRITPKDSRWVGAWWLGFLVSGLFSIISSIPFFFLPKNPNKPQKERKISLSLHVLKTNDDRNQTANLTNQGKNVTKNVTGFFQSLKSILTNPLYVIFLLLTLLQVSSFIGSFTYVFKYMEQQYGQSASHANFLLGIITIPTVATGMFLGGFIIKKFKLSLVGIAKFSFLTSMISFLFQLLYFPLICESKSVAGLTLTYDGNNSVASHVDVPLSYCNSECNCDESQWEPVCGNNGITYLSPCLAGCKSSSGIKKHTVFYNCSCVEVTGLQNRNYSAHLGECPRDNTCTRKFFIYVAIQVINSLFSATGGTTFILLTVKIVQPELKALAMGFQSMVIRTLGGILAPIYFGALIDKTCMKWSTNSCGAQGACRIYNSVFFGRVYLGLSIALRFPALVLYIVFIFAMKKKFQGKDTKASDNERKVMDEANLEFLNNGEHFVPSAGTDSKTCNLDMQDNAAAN
The settings on record: chinese hamster, cho, 10 µM.

Data set [2] deals with T2, Solute carrier organic anion transporter family member 1B1 (Homo sapiens, UniProt Q9Y6L6).
T2 sequence (Q9Y6L6 whole entry): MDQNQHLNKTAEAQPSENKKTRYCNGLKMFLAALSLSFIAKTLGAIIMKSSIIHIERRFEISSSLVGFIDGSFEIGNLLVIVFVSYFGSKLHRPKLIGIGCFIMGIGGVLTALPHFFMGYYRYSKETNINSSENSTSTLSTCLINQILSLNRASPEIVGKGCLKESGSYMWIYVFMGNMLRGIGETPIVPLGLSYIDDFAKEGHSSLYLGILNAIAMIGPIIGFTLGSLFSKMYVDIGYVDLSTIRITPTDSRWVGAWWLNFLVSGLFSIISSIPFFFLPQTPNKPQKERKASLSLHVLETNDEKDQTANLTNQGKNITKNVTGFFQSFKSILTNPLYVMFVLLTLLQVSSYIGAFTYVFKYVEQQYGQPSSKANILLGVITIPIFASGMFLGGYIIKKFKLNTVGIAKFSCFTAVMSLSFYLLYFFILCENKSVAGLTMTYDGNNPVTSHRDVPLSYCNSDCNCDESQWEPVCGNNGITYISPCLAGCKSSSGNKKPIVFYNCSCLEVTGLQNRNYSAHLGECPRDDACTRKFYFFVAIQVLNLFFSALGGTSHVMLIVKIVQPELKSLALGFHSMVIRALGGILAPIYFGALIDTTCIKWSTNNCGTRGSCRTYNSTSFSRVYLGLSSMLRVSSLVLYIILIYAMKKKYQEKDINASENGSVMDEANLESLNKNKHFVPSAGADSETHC
The conditions noted are these: chinese hamster, cho, 10 µM.

Structures are written as SMILES.

Broadly, the residual activity is the signal under treatment as a percentage of the control signal. Regarding `CO/N=C(\C(=O)N[C@@H]1C(=O)N2C(C(=O)[O-])=C(COC(N)=O)CS[C@H]12)c1ccco1.[Na+]` [CEFUROXIME SODIUM], the residual activity in data set [1] is listed as 83.34%; in data set [2], 64.47%.
For `CC1=C(O)C(=O)C=C2C1=CC=C1[C@@]2(C)CC[C@@]2(C)[C@@H]3C[C@](C)(C(=O)O)CC[C@]3(C)CC[C@]12C` [CELASTROL], in that order: 90.72% and 147.4%.
Regarding `Cc1ccc(-c2cc(C(F)(F)F)nn2-c2ccc(S(N)(=O)=O)cc2)cc1` [CELECOXIB], the residual activity is 142.8% in data set [1] and 108.3% in data set [2].
For the compound `OC[C@H]1O[C@@H](O[C@H]2[C@H](O)[C@@H](O)[C@@H](O)O[C@@H]2CO)[C@H](O)[C@@H](O)[C@@H]1O` [CELLBIOSE], the values for the residual activity in data set [1] and in data set [2] were 109.6% and 90.6%, respectively.
Take `CN(C)CCOC(=O)COc1ccc(Cl)cc1.Cl` [CENTROPHENOXINE HYDROCHLORIDE]: the results for the residual activity in data set [1] and in data set [2] were 88.3% and 70.12%, respectively.
For `CC1=C(C(=O)O)N2C(=O)[C@@H](NC(=O)[C@H](N)c3ccccc3)[C@H]2SC1` [CEPHALEXIN ANHYDROUS], in that order: 89.2% and 94.03%.
Take `O=C(Cc1cccs1)N[C@@H]1C(=O)N2C(C(=O)[O-])=C(C[n+]3ccccc3)CS[C@H]12` [CEPHALORIDINE]: the residual activity is 31.99% in data set [1] and 14.22% in data set [2].
For `COC1=C[C@]23CCCN2CCc2cc4c(cc2[C@@H]3[C@@H]1O)OCO4` [CEPHALOTAXINE], in that order: 77.89% and 77.26%.
In the case of `CC(=O)OCC1=C(C(=O)[O-])N2C(=O)[C@@H](NC(=O)Cc3cccs3)[C@H]2SC1.[Na+]` [CEPHALOTHIN SODIUM], the residual activity is 66.3% in data set [1] and 45.11% in data set [2].
Take `CC(=O)OCC1=C(C(=O)[O-])N2C(=O)[C@@H](NC(=O)CSc3ccncc3)[C@H]2SC1.[Na+]` [CEPHAPIRIN SODIUM]: the residual activity is recorded as 94.33% in data set [1] and 85.65% in data set [2].
Take `COc1ccc2cc1Oc1ccc(cc1)C[C@H]1c3c(cc4c(c3Oc3cc5c(cc3OC)CCN(C)[C@@H]5C2)OCO4)CCN1C` [CEPHARANTHINE]: the residual activity in data set [1] turned out to be 125.1%; in data set [2], 91.94%.
For `C/C=C(/C)C(=O)O[C@H]1CC[C@@]2(C)[C@@H]3CC[C@H]4[C@]5(O)C[C@H](O)[C@@]6(O)[C@@H](CN7C[C@@H](C)CC[C@H]7[C@@]6(C)O)[C@]5(O)C[C@@]42O[C@]13O` [CEVADINE] the same measures were 84.71% and 78.54%.
As for `CCOC(=O)CCCCCCCCCCCCC1C=CCC1` (stereo not given) [CHAULMOOGRIC ACID, ETHYL ESTER], the residual activity in data set [1] worked out at 92.79%; in data set [2], 108.7%.
For `O=C(O)CCCCCCCCCCCC[C@@H]1C=CCC1` [CHAULMOOGRIC ACID], in that order: 82.39% and 83.53%.
For `O=C(CCCCCCCCCCCCC1CCCC1)Nc1ccc(S(=O)(=O)c2ccc(NC(=O)CCCCCCCCCCCCC3CCCC3)cc2)cc1` [CHAULMOSULFONE] the same measures were 75.08% and 65.99%.
Take `CN1Cc2c(ccc3c2OCO3)C2C(O)Cc3cc4c(cc3C21)OCO4` (stereo not drawn) [CHELIDONINE (+)]: the residual activity in data set [1] amounted to 82.29%; in data set [2] it was 59.5%.
Regarding `C[C@H](CCC(=O)O)[C@H]1CC[C@H]2[C@@H]3[C@H](O)C[C@@H]4C[C@H](O)CC[C@]4(C)[C@H]3CC[C@]12C` [CHENODIOL], the results for the residual activity in data set [1] and in data set [2] were 71.62% and 37.88%, respectively.
Take `O=C(O)CCCc1ccc(N(CCCl)CCCl)cc1` [CHLORAMBUCIL]: the results for the residual activity in data set [1] and in data set [2] were 102.7% and 123.9%, respectively.
As to `O=C1C(Cl)=C(Cl)C(=O)C(Cl)=C1Cl` [CHLORANIL], the figures for the residual activity in data set [1] and in data set [2] were 74.83% and 80.53%, respectively.
For `ClC1=C(Cl)C2(Cl)C3C(Cl)C(Cl)CC3C1(Cl)C2(Cl)Cl` (stereo not given) [CHLORDANE] the same measures were 121.6% and 98.3%.
For `CC(=O)O[C@]1(C(C)=O)CC[C@H]2[C@@H]3C=C(Cl)C4=CC(=O)CC[C@]4(C)[C@H]3CC[C@@]21C` [CHLORMADINONE ACETATE], in that order: 24.36% and 9.748%.
Take `CN1C(=O)CCS(=O)(=O)C1c1ccc(Cl)cc1` (stereo not given) [CHLORMEZANONE]: the results for the residual activity in data set [1] and in data set [2] were 92% and 97.47%, respectively.
Consider `CC(=O)Oc1ccc(Cl)c2cccnc12` [CHLOROACETOXYQUINOLINE], for which the residual activity in data set [1] was 92.5%; in data set [2], 90.22%.
For `Cc1cc(O)ccc1Cl` [CHLOROCRESOL] the same measures were 91.23% and 119.6%.
Consider `O=C(/C=C/c1ccc(O)c(O)c1)O[C@@H]1C[C@](O)(C(=O)O)C[C@@H](O)[C@H]1O` [CHLOROGENIC ACID], for which the residual activity in data set [1] amounted to 103.1%; in data set [2], 105.9%.
In the case of `Clc1ccc(C(c2ccc(Cl)cc2)C(Cl)(Cl)Cl)cc1` [CHLOROPHENOTHANE], the figures for the residual activity in data set [1] and in data set [2] were 116.2% and 124.5%, respectively.
In the case of `CCN(CC)CCCC(C)Nc1ccnc2cc(Cl)ccc12.O=P(O)(O)O.O=P(O)(O)O` (stereo not given) [CHLOROQUINE PHOSPHATE], the residual activity is 99.18% in data set [1] and 84.34% in data set [2].
Consider `N#Cc1c(Cl)c(Cl)c(Cl)c(C#N)c1Cl` [CHLOROTHALONIL], for which the residual activity in data set [1] was determined as 81.58%; in data set [2], 92.97%.
For `COc1ccc(C(Cl)=C(c2ccc(OC)cc2)c2ccc(OC)cc2)cc1` [CHLOROTRIANISENE], in that order: 92.54% and 91.3%.
For `Oc1c(Cl)cc(Cl)c2cccnc12` [CHLOROXINE] the same measures were 62.22% and 43.47%.
Turning to `Cc1cc(O)cc(C)c1Cl` [CHLOROXYLENOL], the residual activity worked out at 121.1% in data set [1] and 116.8% in data set [2].
For `CN(C)CCCN1c2ccccc2Sc2ccc(Cl)cc21` [CHLORPROMAZINE] the same measures were 97.66% and 99.49%.
As to `CCCNC(=O)NS(=O)(=O)c1ccc(Cl)cc1` [CHLORPROPAMIDE], the residual activity was determined as 102.2% in data set [1] and 102% in data set [2].
For `CC(C)OC(=O)Nc1cccc(Cl)c1` [CHLORPROPHAM] the same measures were 107% and 104.8%.
For `CN(C)CC/C=C1/c2ccccc2Sc2ccc(Cl)cc21.Cl` [CHLORPROTHIXENE HYDROCHLORIDE] the same measures were 101.8% and 85.65%.
For `CCOP(=S)(OCC)Oc1nc(Cl)c(Cl)cc1Cl` [CHLORPYRIFOS], in that order: 127.1% and 140%.
`Cc1ccc2c(Cl)cc(Cl)c(O)c2n1` [CHLORQUINALDOL]: the residual activity in data set [1] is reported as 88.49%; in data set [2], 98.6%.
For `CN(C)[C@@H]1C(O)=C(C(N)=O)C(=O)[C@@]2(O)C(O)=C3C(=O)c4c(O)ccc(Cl)c4[C@@](C)(O)[C@H]3C[C@@H]12.Cl` [CHLORTETRACYCLINE HYDROCHLORIDE], in that order: 95.91% and 128.8%.
For the compound `NS(=O)(=O)c1cc(C2(O)NC(=O)c3ccccc32)ccc1Cl` (stereo not given) [CHLORTHALIDONE], the residual activity in data set [1] is on record as 67.04%; in data set [2] it was 62.41%.
Consider `CC(C)CCC[C@@H](C)[C@H]1CC[C@H]2[C@@H]3CC=C4CC(=O)CC[C@]4(C)[C@H]3CC[C@]12C` [CHOLEST-5-EN-3-ONE], for which the residual activity worked out at 103.5% in data set [1] and 119.6796% in data set [2].
